Test results as given in patent US8829014B2, “Thiazole and thiophene analogues, and their use in treating autoimmune diseases and cancers” (Board of Supervisors of Louisiana State University and …, priority 2006, dated 2014).

What was measured:
AP-1 [1] = test: AP-1 inhibitor screen: basal AP-1-dependent luciferase expression in HEK/AP-1 cell line; format: cell-based; conditions: 1.0 μM, 48 hr screen of 39 compounds (FIG. 13)
How it was run: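 HEK293 cells stably carrying a luciferase reporter driven by three AP-1 elements were plated 24 hr, then given compound at 1.0 μM in 0.3% DMSO for 48 hr, in triplicate. Basal expression without stimulus was read as luminescence (Brite-Glo), normalized to DMSO; dose-response runs repeated two to four times.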

eIF4E = eIF4E inhibitor screen: luciferase under FGF 5′UTR in FaDu cells (highly cap-dependent translation); format: cell-based
Description: Since highly cap-dependent translation is associated with synthesis of proteins involved in cancer, a compound that inhibits this pathway may be used as an anti-cancer agent. The assay was developed by cloning the highly structured 5′ UTR of FGF, which requires high levels of eIF4E before protein synthesis can initiate, into the proper orientation of the reporter gene luciferase, and then stably transfecting the modified luciferase gene into the cell line FaDu that is known to have high levels of eIF4E. The activity of luciferase is then monitored in the presence and absence of the tested compound.
Generation of Stable Cell Lines: The pMS110 plasmid (pGL3-control plasmid from Promega which contains a neo selectable marker) was used to generate pMS110-5′UTR by cloning the 5′ UTR of FGF just upstream of the luciferase AUG start codon. FaDu cells, a head and neck cancer cell line, were transfected using Lipofectamine2000 (Invitrogen). Twenty-four hours after transfection G418 was added at 500 μg/ml. Cells were maintained in G418 for 14 days, and then individual colonies were transferred to a 96-well plate for propagation. Individual clones were analyzed for luciferase expression by plating 10^4 cells per well in a 96-well plate for 24 hours before lysing the cells and analyzing for luciferase activity in a Victor III (Perkin Elmer) or Lucy2 (Rosys Anthos). FaDu9000 and FaDuUTR were the clones that expressed the highest level of active luciferase following transfection of pMS110 and pMS110-5′UTR, respectively.
Analysis of Rapamycin Responsiveness: Cells of FaDu9000 and FaDuUTR were plated at 1×10^4 cells/well in a 96-well dish. Twenty-four hours after plating, 0.1% DMSO (vehicle control) or 10 nM rapamycin were added to each well, and the cells were maintained for an additional 24 or 48 hours. The cells were then lysed and luciferase activity was determined using BriteGlo (Promega) as per manufacturer's instruction and recorded using the Victor III. Following subtraction of background activity, the mean value of quadruplicate samples for a given experiment was determined, and the treated cells were normalized to the control. At least four separate experiments were conducted, and the mean and standard error were calculated. To determine if rapamycin affected cell viability, an MTS assay (Cell Proliferation One Solution, Promega) was carried out on each population at 48 hours in two separate experiments.
The FaDu cell line stably transfected with FGF 5′UTR was used to screen thirty-nine representative compounds, each at a concentration of 1.0 μM. Additional cells were treated with vehicle, 0.3% DMSO. Cells were plated for twenty-four hours in a 96-well plate. Each compound was then added to triplicate wells, and the cells were incubated for forty-eight hours before measuring luciferase activity as above. The mean luciferase activity was measured using Promega's Brite-Glo kit, and the mean for each sample was normalized to DMSO. The experiment was then repeated, and the average and standard deviation of the two experiments were determined (FIG. 8).

NF-κB [2] = test: NF-κB inhibitor screen: basal NF-κB-dependent luciferase expression in HEK/NF-κB cell line; format: cell-based
How it was run: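 HEK293 cells stably carrying a luciferase reporter under six NF-κB elements were treated with compound, unstimulated, 24 h after plating. Compounds were first tested at 1.0 μM (0.3% DMSO), later at six doses from 10 to 3300 nM, in triplicate. Brite-Glo luciferase signal was normalized to DMSO, or to the lowest dose for dose-response runs.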

FaDu cells = format: cell-based; conditions: MTT, 24 hr, 10 nM to 3.3 μM (FIG. 9)
Description: […]. Values greater than 1.0 indicate activation, and values less than 1.0 indicate inhibition.) The compounds that inhibited luciferase translation might, potentially, act by generally inhibiting translation, by reducing cell numbers through inhibition of growth or by cell toxicity, or specifically by inhibiting highly cap-dependent translation. To analyze any general effects on cell viability, fourteen compounds were selected that altered luciferase activity (including a few that increased activity) to test for any effects on cell number. An MTT assay was used to monitor compounds for inhibition of cell growth and cell toxicity. The compounds were tested once in a six-point dose-response assay starting at 10 nM and increasing to 3.3 μM. FaDu cells were plated in a 96-well plate for 24 hr before addition of the compounds. Each compound was added in each of six concentrations (10 nM, 30 nM, 100 nM, 330 nM, 1000 nM, and 3300 nM), and each concentration was tested in triplicate. In addition, DMSO was used as a control. After incubating for 24 hr, the cell number was measured using the MTT assay.

AP-1 [3] = test: PMA-induced AP-1 luciferase expression in HEK cells; format: cell-based; conditions: for AP-1 % inhibition: four lead compounds, Table 13; for IC50: 6 point dose-response curves, read-out: IC50 concentrations AP-1
[4] = system: cell lines from the prostate, one tumorigenic and one non-tumorigenic; test: MTT viability in prostate cell line pair, tumorigenic and non-tumorigenic; format: cell-based; conditions: 10 μM, 48 h, tumorigenic vs non-tumorigenic line
Method: Additional compounds have also been tested for their ability to inhibit both TNF-α-induced NF-κB—expression and PMA-induced AP-1 expression. In both tests, the compound was added for 1 h, then the appropriate inducer was added, and luciferase activity was monitored 24 h later. Values were then normalized to the vehicle control, DMSO. Following the initial luciferase screens, studies were conducted to assess the cytotoxicity of the compounds in normal cells such as VSMC, HUVEC, or HPT cells. Human umbilical vein endothelial cells (HUVEC) represent the normal endothelium, vascular smooth muscle cells (VSMC) were represented by cells from the adult rat aorta, and human proximal tubule (HPT) cells represent the normal proximal tubule in vivo. These cells were grown to near confluency in multi-well plates, and were then treated for 48 h with either vehicle (0.1% DMSO) or 10 μM of each drug candidate. Following treatment, the media from the VSMC and HUVEC incubations were removed, and the amount of lactate dehydrogenase (LDH) released into the medium was determined with a commercial kit. LDH is normally confined to the cytosol, and its release represents “leakiness” of the plasma membrane. LDH activity was expressed as % increase over vehicle-treated cells. […] The number of both live and dead cells was counted using an automated cell viability analyzer. The % decrease in numbers of viable cells was determined. Toxicity in the treated HPT cells was determined by the ethidium homodimer (EthHD) uptake assay. […] Results were expressed as a % increase in cell death over vehicle-treated cells. […] Following treatment, the viability of the cells was determined by the MTT assay. In this assay, the MTT dye is converted only in viable cells by intracellular enzymes to a colorimetric product that is quantitated by a microplate reader.
For the results in Table 13, cells were grown to near confluency in multi-well plates, then treated for 48 h with either vehicle (0.1% DMSO) or 10 μM of each drug candidate. Following treatment, the media from the VSMC and HUVEC incubations were removed, and the amount of lactate dehydrogenase (LDH) released into the medium was determined with a commercial kit and expressed as a % increase over vehicle-treated cells. HPT toxicity was determined by the ethidium homodimer (EthHD) uptake assay. Inside the cell, EthHD produces a strong fluorescent signal, which is proportional to the amount of cell death, expressed as a % increase in cell death over vehicle-treated cells. […] The cells were treated for 48 h with vehicle (0.1% DMSO) or 10 μM of each drug candidate, and the viability of the cells was determined by the MTT assay, expressed as a % decrease in viability compared to vehicle-treated cells. […]

NF-κB [5] = test: TNF-α-induced NF-κB-dependent luciferase expression in HEK cells; format: cell-based; design: NF-κB % inhibition: concentration or dose not given beside the values; conditions: for NF-κB % inhibition: four lead compounds, Table 13
[6] = system: cell lines from the skin, one tumorigenic and one non-tumorigenic; test: MTT viability in skin cell line pair, tumorigenic and non-tumorigenic; format: cell-based; conditions: 10 μM, 48 h, MTT; tumorigenic vs non-tumorigenic line
Method: Additional compounds have also been tested for their ability to inhibit both TNF-α-induced NF-κB—expression and PMA-induced AP-1 expression. In both tests, the compound was added for 1 h, then the appropriate inducer was added, and luciferase activity was monitored 24 h later. Values were then normalized to the vehicle control, DMSO. Following the initial luciferase screens, studies were conducted to assess the cytotoxicity of the compounds in normal cells such as VSMC, HUVEC, or HPT cells. Human umbilical vein endothelial cells (HUVEC) represent the normal endothelium, vascular smooth muscle cells (VSMC) were represented by cells from the adult rat aorta, and human proximal tubule (HPT) cells represent the normal proximal tubule in vivo. These cells were grown to near confluency in multi-well plates, and were then treated for 48 h with either vehicle (0.1% DMSO) or 10 μM of each drug candidate. Following treatment, the media from the VSMC and HUVEC incubations were removed, and the amount of lactate dehydrogenase (LDH) released into the medium was determined with a commercial kit. LDH is normally confined to the cytosol, and its release represents “leakiness” of the plasma membrane. LDH activity was expressed as % increase over vehicle-treated cells. In another assay of viability, the treated VSMC and HUVEC were removed by trypsinization and treated with trypan blue, a dye that is taken up only by dead cells. The number of both live and dead cells was counted using an automated cell viability analyzer. The % decrease in numbers of viable cells was determined. Toxicity in the treated HPT cells was determined by the ethidium homodimer (EthHD) uptake assay. EthHD is a fluorescent dye that is excluded from live cells, but is taken up by cells that have lost permeability barriers. Inside the cell, EthHD produces a strong fluorescent signal, which is proportional to the number of dead cells. Results were expressed as a % increase in cell death over vehicle-treated cells. The lead compounds were also tested in two pairs of cell lines from either the skin or prostate, one tumorigenic and one non-tumorigenic, to test for any differences in toxicity or heightened sensitivity in the tumorigenic lines. The cells were treated for 48 h with vehicle (0.1% DMSO) or 10 μM of each drug candidate. Following treatment, the viability of the cells was determined by the MTT assay. In this assay, the MTT dye is converted only in viable cells by intracellular enzymes to a colorimetric product that is quantitated by a microplate reader.
For the results in Table 13, cells were grown to near confluency in multi-well plates, then treated for 48 h with either vehicle (0.1% DMSO) or 10 μM of each drug candidate. Following treatment, the media from the VSMC and HUVEC incubations were removed, and the amount of lactate dehydrogenase (LDH) released into the medium was determined with a commercial kit and expressed as a % increase over vehicle-treated cells. HPT toxicity was determined by the ethidium homodimer (EthHD) uptake assay. Inside the cell, EthHD produces a strong fluorescent signal, which is proportional to the amount of cell death, expressed as a % increase in cell death over vehicle-treated cells. The lead compounds were also tested in two pairs of cell lines from the skin or prostate, one tumorigenic and one non-tumorigenic, to test for differing toxicity or heightened sensitivity in the tumorigenic lines. The cells were treated for 48 h with vehicle (0.1% DMSO) or 10 μM of each drug candidate, and the viability of the cells was determined by the MTT assay, expressed as a % decrease in viability compared to vehicle-treated cells. The in vivo inflammation model measured the % inhibition of rat paw edema induced by carageenan injection.

carageenan-induced edema = test: Carrageenan-induced rat paw edema test (anti-inflammatory activity); format: in vivo, Sprague-Dawley rats; conditions: for In vivo inflammation % inhibition: rat paw edema induced by carageenan injection
How it was run: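 Sprague-Dawley rats (male and female, 150-250 g), fasted 18 h, given compound orally at 50 mg/kg in 0.1% sodium CMC (alternatively i.v., s.c. or i.p.). 1% carrageenan injected sub-plantar in right hind paw 1 h later. Paw displacement read again 3 h later; % protection = [(Control−Test)/Control]×100 versus saline control.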

Row | Compound | basal AP-1-dependent luciferase expression (AP-1 [1]) | luciferase expression under the control of the FGF 5′UTR (eIF4E; 1.0 μM, 48 h, FaDu UTR cells, normalized to DMSO (FIG. 8)) | inhibition of luciferase activity (FGF 5′UTR) (eIF4E; highest concentration tested) | inhibition of highly cap-dependent translation (summary statement) (eIF4E; summary in the disclosure) | basal NF-κB-dependent luciferase, six-point dose response (NF-κB [2]; 10 nM-3300 nM (FIG. 12)) | inhibition of basal NF-κB-dependent luciferase expression (NF-κB [2]; 3.3 μM (FIG. 12)) | inhibition of NF-κB (summary statement) (NF-κB [2]; summary in the disclosure) | FaDu cell number / growth / viability (FaDu cells) | AP-1 % inhibition (AP-1 [3]) [%] | Differential Toxicity* Prostate [4] | NF-κB % inhibition (NF-κB [5]) [%] | Differential Toxicity* Skin [6] | In vivo inflammation % inhibition (carageenan-induced edema) [%] | IC50 (AP-1 [3]) [nM] | IC50 (NF-κB [5]; 6 point dose-response curves, read-out: IC50 concentrations NF-κB) [nM] | inflammation in the in vivo assay (carageenan-induced edema; rat paw edema)
1 | COc1ccc(C(=O)c2sc(Nc3ccc(Cl)cc3)nc2-c2ccncc2)cc1 [Example 116] | almost complete inhibition | inhibited luciferase expression | greater than 90% | capable of inhibiting | robust inhibition | about 50% | capable of inhibiting | inhibited cell numbers at each concentration tested | – | – | – | – | – | – | – | –
2 | Cc1ccccc1-n1c(-c2sc(Nc3ccccc3)nc2C)nc2ccccc2c1=O [PMCR 20] | – | – | – | – | – | – | – | – | 73 | Cancer | 21 | Neither | 42 | – | – | –
3 | CNc1nc(-c2ccccc2)c(-c2nc3ccccc3c(=O)n2-c2ccccc2OC)s1 [PMCR 75] | – | – | – | – | – | – | – | – | 90 | Normal | – | Both | 56 | 200 | 500 | –
4 | Cc1nc(Nc2ccc(Cl)cc2)sc1-c1nc2ccccc2c(=O)n1-c1ccccc1Cl [PMCR 120] | – | – | – | – | – | – | – | – | 27 | Both | – | Cancer | 58 | – | – | –
5 | CC(=O)c1ccc(-n2c(-c3cc(-c4ccncc4)c(N4CCOCC4)s3)nc3ccccc3c2=O)cc1 [PMCR 242] | – | – | – | – | – | – | – | – | 84 | Cancer | 66 | Neither | 80 | 5000 | – | strongly inhibited inflammation
